Series [1] in a line: Plasma concentration in mouse at 0.3 mg/kg, po after 30 mins. The format is ADME, organism-based.
Series [2] is described as follows: Drug uptake in mouse brain at 0.3 mg/kg, po after 30 mins. Format: ADME, organism-based. The note with it: read-out: Drug uptake.

The source of these data is ChEMBL document CHEMBL3994648, “Design and synthesis of a novel series of 4-heteroarylamino-1'-azaspiro[oxazole-5,3'-bicyclo[2.2.2]octanes as α7 nicotinic receptor agonists 2. Development of 4-heteroaryl SAR” (Bioorg Med Chem Lett, 2017).

As for `c1ccc(-c2cc(NC3=NC[C@@]4(CN5CCC4CC5)O3)ncn2)cc1`, the concentration at 0.5 h in series [1] amounted to 273 nM; in series [2], 81 nM.
